The target of assay [1] is T1, human α-thrombin (Homo sapiens, UniProt P00734).
T1 construct: purified human α-thrombin
Briefly: Enzyme assay for the inhibition of thrombin (s-2238 chromogenic substrate). It is filed as biochemical. The following applies: Table I, determined graphically from Dixon plots, room temperature, pH 7.4, substrate s-2238. As to the method:
Enzyme Assays for the Inhibition of Thrombin The following reagents were used in these assays: […] Inhibitors to be tested were dissolved in H2 O, methanol, or DMSO just prior to use. To each well in a 96-well microtiter plate, 270 μl of assay buffer was added. […] The samples were incubated at room temperature for a defined period of time (3 minutes for initial IC50 determinations). The enzymatic reaction was started with 10 μl of 3 mM s-2238 substrate and continued at room temperature. The change in optical density was measured at 405 nm. A kinetic microplate reader (Molecular Devices Corporation .nu.max) was used to measure the change in optical density over time. Table I lists the Ki values for different compounds, Ki value is determined graphically from Dixon plots (plots of reciprocal enzyme velocity i/v vs. linear function of inhibitor concentration at various enzyme substrate concentrations). This methodology is well known in the art.

Assay [2] deals with T1, human α-thrombin. Kind of assay: Concentration required for doubling thrombin clotting time (clotting time assay in human plasma). Format: biochemical. The following applies: Table II; human citrated plasma, 10 U/ml human thrombin; read-out: DTT (concentration of drug which caused a doubling of the thrombin clotting time). As to the method: Procedure for Determining the Concentration Required for Doubling Thrombin Clotting Time--Clotting Time Assays
The following reagents were used in these assays:
The blood was centrifugated at […]. The plasma was removed, pooled, and aliquoted into small tubes which were stored frozen for later use.
Clotting times were determined by pipetting 0.1 ml of Owren's buffer (pre-warmed to 37° C.) and 0.1 ml of human or rat plasma into yellow sample cuvettes. For studies with human plasma 10 U/ml human thrombin (10 ml) was placed in the reservoir assembly station of the MLA 700. (Medical Laboratory Automation, Electra 700 Reservoir Assembly). For rat studies, the human thrombin concentration was 25 U/ml. The cuvettes were vortexed and then placed on the MLA 700 sample wheel. The coagulation timer (MLA 700) automatically dispenses 0.1 ml human thrombin into the sample in each cuvette. Detection of the fibrin clot was determined optically by the MLA 700.
Studies were performed to determine the concentration of drug which caused a doubling of the clotting time (DTT) in human plasma.

Counter-ions that a name gives are not always drawn. Like-named read-outs stand apart in the source and are kept apart here.

Experimental findings from patent US5248673A, “Bisamidine derivatives as thrombin inhibitors” (Bristol-Myers Squibb Co., priority 1992, dated 1993) are described below.

For `CN(C)c1cccc2c(S(=O)(=O)NC(CCCNC(=N)C(=N)N)C(=O)N3CCCCC3)cccc12` (stereo not drawn) [Compound 7a, 1-[5-[(2-amino-1,2-diminoethyl)amino]-2-[[[5-(dimethylamino)-1-naphthalene]amino]-1-oxopentyl]piperidine hydrochloride], the Ki in assay [1] (read-out: Ki) amounted to 3.2 µM. Still for that read-out and setting: next, `CC1CCN(C(=O)C(CCNC(=N)C(=N)N)NS(=O)(=O)c2cccc3c(N(C)C)cccc23)CC1` (stereo not drawn) [Compound 7b]: 4 µM. Same read-out and setting: the same measure for `CC1CCN(C(=O)C(CCCNC(=N)C(=N)N)NS(=O)(=O)c2cccc3c(N(C)C)cccc23)CC1` (stereo not drawn) [Compound 7c, 1-[5-[(2-amino-1,2-diiminoethyl)amino]-2-[[[5-(dimethylamino)-1-naphthalenyl]sulfonyl]amino]-1-oxopentyl]-4-methylpiperidine trihydrochloride hydrate]: 0.33 µM.

As to `CCC1CCN(C(=O)C(CCCNC(=N)C(=N)N)NS(=O)(=O)c2cccc3c(N(C)C)cccc23)CC1` (stereo not drawn) [Compound 7d, 1-[5-[(2-amino-1,2-diiminoethyl)amino]-2-[[[5-(dimethylamino)-1-naphthalenyl]sulfonyl]amino]-1-oxopentyl]-4-ethylpiperidine trihydrochloride hydrate], the Ki in assay [1] (read-out: Ki) is 0.3 µM. With `CN(C)c1cccc2c(S(=O)(=O)NC(CCCNC(=N)C(=N)N)C(=O)N3CCOCC3)cccc12` (stereo not drawn) [Compound 7e, 1-[5-[(2-amino-1,2-diiminoethyl)amino]-2-[[[5-(dimethylamino)-1-naphthalenyl]sulfonyl]amino]-1-oxopentyl]morpholine trihydrochloride hydrate], the IC (2-fold clotting time) in assay [2] stood at 4 µM. Further, the Ki in assay [1] (read-out: Ki) stood at 2 µM. `CCCCN(CC(=O)OCC)C(=O)C(CCCNC(=N)C(=N)N)NS(=O)(=O)c1cccc2c(N(C)C)cccc12` (stereo not drawn) [Compound 7f, ethyl N-[5-[(2-amino-1,2-diiminoethyl)amino]-2-[[[5-(dimethylamino)-1-naphthalenyl]sulfonyl]amino]-1-oxopentyl]-N-butylglycinate trihydrochloride hydrate]: the Ki in assay [1] (read-out: Ki) was 3 µM.

Consider `CN(C)c1cccc2c(S(=O)(=O)NC(CCCNC(=N)C(=N)N)C(=O)N3CCCCCC3)cccc12` (stereo not drawn) [Compound 7g, 1-[5-(2-amino-1,2-diiminoethyl)amino]-2-[[[5-(dimethylamino)-1-naphthalenyl]sulfonyl]amino]-1-oxopentyl]homopiperidine trihydrochloride hydrate], for which the IC (2-fold clotting time) in assay [2] turned out to be 1.8 µM. Besides, in assay [1] (read-out: Ki), the Ki is 0.4 µM. For `Cc1ccc(S(=O)(=O)NC(CNC(=N)C(=N)N)C(=O)N2CCCCC2)cc1` (stereo not drawn) [Compound 7h], the IC (2-fold clotting time) in assay [2] is greater than 300 µM. Further, the inhibition constant Ki result in assay [1] was “insol”. Take `Cc1ccc(S(=O)(=O)NC(CCNC(=N)C(=N)N)C(=O)N2CCCCC2)cc1` (stereo not drawn) [Compound 7i]: in assay [1] (read-out: Ki), the Ki stood at 80 µM. The same measure, in the same setting: next, `Cc1ccc(S(=O)(=O)NC(CCCNC(=N)C(=N)N)C(=O)N2CCCCC2)cc1` (stereo not drawn) [Compound 7j]: 16 µM. For the compound `Cc1ccc(S(=O)(=O)NC(CCCCNC(=N)C(=N)N)C(=O)N2CCCCC2)cc1` (stereo not drawn) [Compound 7k, 1-[6-[(2-amino-1,2-diiminoethyl)aminol]-2-[[(4-methylphenyl)sulfonyl]amino]-1-oxohexyl]piperidine dihydrochloride], the IC (2-fold clotting time) in assay [2] came to 150 µM. Further, the Ki in assay [1] (read-out: Ki) is 55 µM. Regarding `Cc1ccc(S(=O)(=O)NC(CCCNC(=N)C(=N)N)C(=O)N2CCC(C)CC2)cc1` (stereo not drawn) [Compound 7l, 1-[5-[2-(amino-1,2-diiminoethyl)amino]-2-[[(4-methylphenyl)sulfonyl]amino]-1-oxopentyl]-4-methylpiperidine hydrochloride], the Ki in assay [1] (read-out: Ki) worked out at 18 µM. As to `N=C(N)C(=N)NCCC(NC(=O)CNS(=O)(=O)c1ccc2ccccc2c1)C(=O)N1CCCCC1` (stereo not drawn) [Compound 7m], the Ki in assay [1] (read-out: Ki) came out at 36 µM.

In the case of `N=C(N)C(=N)NCCCC(NC(=O)CNS(=O)(=O)c1ccc2ccccc2c1)C(=O)N1CCCCC1` (stereo not drawn) [Compound 7n], in assay [1] (read-out: Ki), the Ki is greater than 50 µM.

Broadly, the Ki is the dissociation constant of the complex between target and ligand, obtained from inhibition or displacement.
